Legend:
phosphorylated PLCγ2 = assay: Phosphorylated PLCγ2 in circulating CD8+ T cells of patients, Phase 1 trial (flow cytometry); type: in vivo, human
Description: [The procedure below names another target; the source lists this target under the same test.] Pharmacodynamic analysis of the proximal biomarker, phosphorylated HS1 is assessed in circulating CD8^+ T cells from patients that are being administered doses ranging from 5 to 50 mg of Compound 23 once daily and is being used to assess target engagement of Compound 23 as part of the dose/exposure-response profile. Whole blood is collected longitudinally and added into two types of TruCulture (Myriad) tubes. One tube contains media, and the second tube contains anti-CD3 and anti-CD28, which are subsequently crosslinked to induce cellular stimulation for pharmacodynamic analysis. Phosphorylated HS1 is assessed by flow cytometry pre and post dose on Cycle 1 Day 1 (C1D1) and Cycle 2 Day 1 (C2D1) to characterize single/multiple dose PD profiles.
% Maximal phosphorylated signal and % AUC are two commonly used parameters to assess the pharmacodynamic effects of drugs.
% Maximal phosphorylated signal refers to the maximum amount of a specific protein that becomes phosphorylated (i.e., modified by the addition of a phosphate group) in response to a drug or other stimulus. This parameter is often used to measure the activation of signaling pathways that are important for various cellular processes, including cell growth and differentiation, immune response, and metabolism.
% AUC, on the other hand, refers to the area under the curve (AUC) over time, expressed as a percentage of the maximum possible AUC. In summary, both % maximal phosphorylated signal and % AUC are useful parameters to assess the pharmacodynamic effects of drugs. % maximal phosphorylated signal is a measure of the activation of signaling pathways, while % AUC reflects the duration of the effect on PD signals. Both parameters can be used to evaluate the potency and duration of a drug's pharmacodynamic effects.

phosphorylated HS1 = assay: Phosphorylated HS1 in human CD8+ T cells from whole blood in vitro (flow cytometry); type: cell-based
Description: To assess these candidate clinical proximal biomarkers of Cbl-b inhibition on T cells, pharmacodynamic analysis was performed. Whole blood was obtained from human donors and incubated with increasing concentrations of Compound 23. The response to Cbl-b inhibition on phosphorylated HS1, PLCγ2, and ZAP70 was measured in CD8^+ T cells using flow cytometry. This technique is highly quantitative and can measure multiple phosphorylation markers in different cell populations within the same sample.
For pharmacodynamic analysis, whole blood was obtained from six human donors (BioIVT) and used for flow cytometry assays to evaluate phosphorylated biomarkers HS1, PLCγ2, and ZAP70 in CD8^+ T cells.
Whole blood was collected in a collection tube coated with sodium heparin. […]
Stained cells were run on an Attune NxT Acoustic Focusing Flow Cytometer (Thermo Fisher, cat. No. A29004), and data was analyzed using FlowJo (v10.6.1) and GraphPad Prism (v8.00) software. Single lymphocytes were gated for CD8^+ cells (CD45^+/CD8^+) cells, and population frequencies were calculated for each population. The data is quantified by the percent positive. […] As protein becomes phosphorylated the fluorescence increases resulting in a larger fraction of the cells entering that gate. Each population was evaluated for % positive pY759-PLCγ2, pY397-HS1 levels, pY319/Syk (Y352)-ZAP70 levels. […]

[1] = 5 mg once daily, n=1, cycle 1, day 1
[2] = 15 mg once daily, n=12, cycle 1, day 1
[3] = 25 mg once daily, n=7, cycle 1, day 1
[4] = 50 mg once daily, n=2, cycle 1, day 1

Compound: C[C@H]1CCCN(Cc2cc3c(c(C(F)(F)F)c2)CN(c2cccc([C@]4(c5nncn5C)C[C@@H](C)C4)c2)C3=O)C1 [Compound 23]
- trend of maximal or AUC % pPLCγ2 with PK (phosphorylated PLCγ2): No apparent trend
- % of phosphorylated PLCγ2 expressing CD8+ T cells (maximal) (phosphorylated PLCγ2; [1]): 56%
- phosphorylated PLCγ2 AUC (phosphorylated PLCγ2; [1]): 1003
- % of phosphorylated PLCγ2 expressing CD8+ T cells (maximal) (phosphorylated PLCγ2; [2]): 81%
- phosphorylated PLCγ2 AUC (phosphorylated PLCγ2; [2]): 1616
- % of phosphorylated PLCγ2 expressing CD8+ T cells (maximal) (phosphorylated PLCγ2; [3]): 85%
- phosphorylated PLCγ2 AUC (phosphorylated PLCγ2; [3]): 1807
- % of phosphorylated PLCγ2 expressing CD8+ T cells (maximal) (phosphorylated PLCγ2; [4]): 75%
- phosphorylated PLCγ2 AUC (phosphorylated PLCγ2; [4]): 1706
- EC50 (phosphorylated HS1; T-cell, whole blood from six human donors, 2 hrs 37° C., anti-CD3/anti-CD28 + crosslinker 60 minutes, CD8+ T cells, read-out: Average mean EC50±standard deviation, phosphorylated HS1): 89 ± 7.91 nM
- phosphorylated HS1 in human whole blood (FIG. 7) (phosphorylated HS1; human donors n=6, two hours at 37° C., anti-CD3 and anti-CD28 co-stimulation, crosslinked): concentration-dependent increase
